Results taken from US20240252508A1, “Novel glucose uptake inhibitors for use in the treatment of cancer” (NOVELYEAST BV, priority 2021, published 2024).

Tests used:
[1] = test system: tps1Δ cells; assay: Growth rescue of tps1Δ strain on glucose (growth curves, 2% galactose medium); assay type: cell-based, S. cerevisiae; conditions: 100 μM compound, 2.5 mM glucose
Procedure: Growth curves were made by measuring OD595 in a 96-well plate using the Multiskan™ FC Microplate Photometer (Thermo Fisher Scientific). Typically, for tps1Δ rescue experiments (FIG. 2b-e; FIG. 4a), cells were (pre)grown in Complete Synthetic medium containing 2% galactose.
Compounds were always added 10 min prior to glucose addition to ensure maximal interaction between the cells and compounds. Cells originating from the preculture were harvested, washed in medium without sugar, after which they were resuspended to an OD of 0.1 in 200 μL of the appropriate medium. At least three technical replicates were included per condition. OD595 was measured at 30° C. every 30 min with a 10-min shaking interval.

[2] = test system: A549 lung adenocarcinoma cells; assay: A549 cell proliferation / growth inhibition; assay type: cell-based, human; conditions: for Selected from primary screen for growth inhibition of A549 cells at 50 μM: 50 μM compound, 1 mM glucose; for Selected for having an IC50 ratio (10 mM glucose: 1 mM glucose) of A549 growth higher than WBC-A: IC50 on 10 mM vs 1 mM glucose, compared with WBC-A
Procedure: The analog library (n=203) was screened for inhibition of growth of A549 cells on RPMI medium supplemented with 1 mM glucose. DMSO (green bar) and WBC-A (orange bar) served as negative and positive control, respectively. In addition, the reference glucose transport inhibitors STF-31, Fasentin, BAY-876, WZB-117 and Cytochalasin B were included and indicated in red. Compounds were added at 50 μM concentration. Number of cells was determined by counting nuclei stained by Hoechst after three days of growth.
For both adherent A549 and MCF10Δ H-RAS^V12 cell lines, growth curves were established using the IncuCyte® ZOOM technology. By collecting phase contrast images, the IncuCyte® software provides a calculated confluency percentage from which growth curves can be deducted.
Cells were seeded at a density of 1000-1500 cells/well in a Nunc-Edge™ 96-well plate (Thermo Fisher Scientific) and growth was typically measured over 3 to 5 days. For the measurement of apoptosis induction using the MCF10Δ H-RAS^V12 cell line, the IncuCyte® Caspase-3/7 green dye was added to the medium in the recommended concentration at the beginning of the growth curve experiment. Apoptosis was detected by taking fluorescent images by excitation at 488 nm followed by IncuCyte® software analysis. Cell growth of the KMS-12-PE multiple myeloma cell line, which grows in suspension, was measured by manual cell counting. Cells were initially seeded at a density of 10^4 cells/well and incubated for 4 days after which the cell number was counted. For all cell lines, the same medium used for pregrowth was also used for the growth curve experiment, albeit with different glucose concentrations depending on the experimental design. With compound administration, the final concentration of DMSO never exceeded 0.1%. Typically, at least four technical repeats were included per condition.

Compound	Rescue of the tps1Δ strain on 2.5 mM glucose at 100 μM [1]	Selected from primary screen for growth inhibition of A549 cells at 50 μM [2]	Selected for having an IC50 ratio (10 mM glucose: 1 mM glucose) of A549 growth higher than WBC-A [2]
CCCc1nnc(Sc2nc(CN3CCOCC3)nc3scc(-c4cccs4)c23)[nH]1 [62C]	No	Yes	Lower IC50 ratio
Cn1ccnc1Sc1nc(CN2CCOCC2)nc2scc(-c3cccs3)c12 [3C]	No	No	–
Cc1sc2nc(-c3cccnc3)nc(SCCO)c2c1-c1ccccc1 [13C]	No	Yes	Lower IC50 ratio
Cc1nc(SCC(=O)NCC(F)(F)F)c2c(-c3cccs3)csc2n1 [31B]	No	No	–
Cc1nc(SCC(N)=O)c2c(-c3cccs3)csc2n1 [14A]	Yes	No	–
Cc1nc(SCC(=O)N(C)CCC#N)c2c(-c3cccs3)csc2n1 [7B]	Yes	No	–
O=C(CSc1ncnc2scc(-c3ccccc3)c12)N1CCOCC1 [60C]	No	No	–
COCc1nc(Sc2nnc(CN)n2C)c2c(-c3ccccc3)csc2n1 [40A]	No	No	–
Cc1ccc(-c2csc3nc(CSc4nnc5n4CCCCC5)[nH]c(=O)c23)s1 [4A]	No	No	–
Cc1nc(SCC(=O)Nc2ccc(OC(F)(F)F)cc2)c2c(-c3cccs3)csc2n1 [5C]	No	Yes	Lower IC50 ratio
OCCSc1ncnc2sc3c(c12)CCC3 [17C]	No	No	–
COCCCNC(=O)CSc1nc(C)nc2scc(-c3cccs3)c12 [15B]	Yes	No	–
Cc1nc(SCC(=O)N2CCOCC2)c2cc(-c3ccccc3)sc2n1 [28C]	No	No	–
Cc1nc(N2CCNC(=O)C2)c2c(-c3cccs3)csc2n1 [3B]	No	No	–
Cc1cc(C)n2nc(Sc3nc(C)nc4scc(-c5cccs5)c34)nc2n1 [3A]	No	No	–
Cc1nnc(Sc2ncnc3scc(-c4ccccc4)c23)n1C [19A]	No	No	–
Cc1nc(Sc2nnc(-c3ccco3)n2C)c2c(-c3cccs3)csc2n1 [25A]	No	No	–
COc1ccc(-c2csc3nc(C)nc(Sc4nccn4C)c23)cc1OC [42A]	No	Yes	Lower IC50 ratio
Cc1nc(Sc2nnc3sc4ccccc4n23)c2c3c(sc2n1)CCCC3 [51C]	No	No	–
Cc1nc(SCC(=O)N(CC(C)C)CC(C)C)c2c(-c3cccs3)csc2n1 [44B]	No	Yes	Lower IC50 ratio
COc1ccc(OC)c(NC(=O)CSc2nc(C)nc3scc(-c4cccs4)c23)c1 [21B]	No	No	–
CSc1nc(C)nc2scc(-c3cccs3)c12 [45A]	No	No	–

Compound	Rescue of the tps1Δ strain on 2.5 mM glucose at 100 μM [1]	Selected from primary screen for growth inhibition of A549 cells at 50 μM [2]	Selected for having an IC50 ratio (10 mM glucose: 1 mM glucose) of A549 growth higher than WBC-A [2]
NC(=O)CSc1ncnc2scc(-c3ccccc3)c12 [82C]	No	No	–
Cc1nc(SCC(N)=O)c2c(C)c(C)sc2n1 [61C]	No	No	–
c1ccc(-c2csc3ncnc(Sc4nnc5ccccn45)c23)cc1 [49A]	No	Yes	Lower IC50 ratio
c1ccn2c(Sc3ncnc4sccc34)nnc2c1 [46A]	No	No	–
Cc1nc(SCC(=O)NC(N)=O)c2c(-c3cccs3)csc2n1 [6B]	Yes	Yes	Lower IC50 ratio
Cc1sc2nc(-c3cccs3)nc(N(C)Cc3nnc4n3CCCCC4)c2c1C [36A]	No	No	–
CC(=O)NCc1ccc(C(=O)CSc2nc(C)nc3scc(-c4cccs4)c23)o1 [29B]	Yes	No	–
Cc1cc(C)nc(Sc2nc(CN3CCOCC3)nc3scc(-c4cccs4)c23)n1 [64C]	No	Yes	Lower IC50 ratio
Cc1sc2[nH]c(CSc3nnc(-c4cccs4)n3Cc3ccccc3)nc(=N)c2c1C [11A]	No	No	–
Cc1ccc(-c2csc3ncnc(Sc4ncccn4)c23)cc1 [50A]	No	No	–
c1csc(-c2csc3nc(CN4CCOCC4)nc(Sc4nnc[nH]4)c23)c1 [55A]	Yes	No	–
Cc1nnc(SCC(=O)NC(C)(C)C)c2c1cnn2-c1ccccc1 [75C]	No	No	–
CCn1c(Sc2nc(C)nc3scc(-c4cccs4)c23)nnc1-c1ccncc1 [43C]	Yes	Yes	–
Cc1nc(SCC(=O)c2ccc(NC(=O)CC(C)C)cc2)c2c(-c3cccs3)csc2n1 [38B]	No	No	–
Cc1nc(SCC(=O)N2CCOCC2)c2ccsc2n1 [78C]	No	No	–
CCn1nnnc1Sc1ncnc2scc(-c3ccc(C)cc3)c12 [61A]	No	Yes	Lower IC50 ratio
Cc1nc(SCC(=O)N2CCOCC2)c2c3c(sc2n1)CCCC3 [52C]	No	No	–
Cn1nnnc1Sc1ncnc2scc(-c3ccc(Cl)cc3)c12 [48A]	No	Yes	Lower IC50 ratio
Cc1nc(SC(C)C(=O)Nc2ccc(S(N)(=O)=O)cc2)c2c(-c3cccs3)csc2n1 (stereo not shown) [14B]	No	Yes	Lower IC50 ratio
Cc1sc2ncnc(Sc3nnc4n3CCCCC4)c2c1C [64A]	No	No	–
CCOC(=O)CSc1nc(CN2CCOCC2)nc2scc(-c3cccs3)c12 [35B]	No	No	–
Cc1nc(NCC(=O)N2CCCC2)c2c(-c3cccs3)csc2n1 [24B]	No	Yes	Lower IC50 ratio
